What was measured:
[1] = tested on: obese model rats [肥胖模型大鼠]; test: Weight-loss efficacy test in obese model SD rats (diet-induced obesity, with swimming exercise); assay type: in vivo, rat; details: 30 days; for body fat (testicular and perirenal fat pads) / body weight increase / fat/body ratio: gavage
[2] = background art, cited from earlier work
[3] = background art; cited from earlier work
[4] = Critical relative humidity (CRH) from moisture absorption equilibrium curve; assay type: physicochemical
[5] = Angle of repose (powder poured through a funnel) / flowability; assay type: physicochemical
[6] = L-carnitine tartrate control + exercise, 0.13 g in 2 ml water, swimming 30 min, 5 times/week, * (P<0.05 vs model control) printed
[7] = high dose + exercise (30x recommended human dose; Ex. 2 at maximum dissolved concentration; Ex. 1/2/3/4: 0.96/0.36/1.02/1.08 g in 2 ml water), * (P<0.05 vs model control): all

With C[N+](C)(C)CC(O)CC(=O)O (centres unmarked) [左旋肉碱酒石酸盐, reference compound] the “body fat (testicular and perirenal fat pads)” value (“body fat” below) ([1]; L-carnitine tartrate control + exercise, 0.13 g in 2 ml water, swimming 30 min, 5 times/week) was 8.2 ± 4.3 g, the body weight increase [1, 6] was 21.3 ± 14.2 g and the fat/body ratio [1, 6] was 0.03±0.01. For the same compound, the hygroscopicity ([2]; words) was “仍有较大的吸湿性” and the “relative humidity at which deliquescence occurs” value [2] was greater than 60%.

In the case of CC(=O)[O-].CC(=O)[O-].[Ca+2] [醋酸钙], the LD50 [3] is listed as less than 5000 mg/kg.

With C[N+](C)(C)CC(O)CC(=O)O (centres unmarked) [实施例1药, 左旋肉碱L-苹果酸盐] the “critical relative humidity CRH” value ([4]; 25 °C, saturated salt solutions in desiccator) was 87%, the “moisture absorption (hygroscopicity)” value ([4]; words, judged from CRH at 25 °C) was “不易吸潮” and the “body fat” value [1, 7] was 5.9 ± 4.5 g. For the same compound, the body weight increase [1, 7] was 15.2 ± 7.9 g, the fat/body ratio [1, 7] was 0.02±0.02 and the body weight increase ([1]; low dose + exercise (5x recommended human dose; Ex. 1/2/3/4: 0.16/0.18/0.17/0.18 g in 2 ml water), * (P<0.05 vs model control): Ex. 1, 3, 4) was 19.3 ± 10.2 g. For the same compound, the “body fat” value ([1]; low dose + exercise (5x recommended human dose; Ex. 1/2/3/4: 0.16/0.18/0.17/0.18 g in 2 ml water), * (P<0.05 vs model control): Ex. 2, 3, 4) was 7.3 ± 4.1 g, the fat/body ratio ([1]; low dose + exercise (5x recommended human dose; Ex. 1/2/3/4: 0.16/0.18/0.17/0.18 g in 2 ml water), no * printed) was 0.03±0.01 and the “difference between results of Example 1, 2, 3 and 4 drugs” value ([1]; words, obese rats) was “无明显差异”. The angle of repose ([5]; solid powder flowing from funnel) was 30 ° and the flowability ([5]; words, judged from angle of repose) was “流动性较好”.
